According to article PMC8788362, “Rational design and synthesis of 2-(1H-indazol-6-yl)-1H-benzo[d]imidazole derivatives as inhibitors targeting FMS-like tyrosine kinase 3 (FLT3) and its mutants” (Journal of Enzyme Inhibition and Medicinal Chemistry, 2022):
Read-outs that look alike come from different tables or passages of the source.

Columns and labels:
FLT3 (F594_R595 ins R) = target: T1, FLT3 (F594_R595 ins R) (Homo sapiens, UniProt P36888, INS594R); experiment: Reaction Biology Kinase HotSpot radiometric kinase assay; format: biochemical
T1 construct: purchased Reaction Biology Corp. (Kinase HotSpot service)
Excerpt: (§1) (specific activity approx. 500 cpm/pmol, concentration as required).

FLT3 (ITD)-NPOS = FLT3 (ITD)-NPOS (Homo sapiens, UniProt P36888, ITD); experiment: as above; format: biochemical
Excerpt: as §1

FLT3 (ITD)-W51 = target: T2, FLT3 (ITD)-W51 (Homo sapiens, UniProt P36888, DUP595-601); experiment: as above; format: biochemical
T2 construct: purchased Reaction Biology Corp. (Kinase HotSpot service)
Excerpt: as §1

FLT3 (R595_E596 ins EY) = target: T3, FLT3 (R595_E596 ins EY) (Homo sapiens, UniProt P36888, INS595EY); experiment: as above; format: biochemical
T3 construct: purchased Reaction Biology Corp. (Kinase HotSpot service)
Excerpt: as §1

[1] = target: T4, FLT3 (Y591_V592 ins VDFREYEYD) (Homo sapiens, UniProt P36888, INS591VDFREYEYD); experiment: as above; format: biochemical
T4 construct: purchased Reaction Biology Corp. (Kinase HotSpot service)
Excerpt: as §1

ABL1 = target: T5, ABL1 (Homo sapiens, UniProt P00519); experiment: Reaction Biology Kinase HotSpot kinase assay; format: biochemical
T5 construct: purchased Reaction Biology Corp. (Kinase HotSpot service)
Excerpt: as §1

CAMKK1 = target: T6, CAMKK1 (Homo sapiens, UniProt Q8N5S9); experiment: Reaction Biology Kinase HotSpot kinase assay; format: biochemical
T6 construct: purchased Reaction Biology Corp. (Kinase HotSpot service)
Excerpt: as §1

TRKC = target: T7, TRKC (Homo sapiens, UniProt Q16288); experiment: Reaction Biology Kinase HotSpot kinase assay; format: biochemical
T7 construct: purchased Reaction Biology Corp. (Kinase HotSpot service)
Excerpt: as §1

c-Kit = target: T8, c-Kit (Homo sapiens, UniProt P10721); experiment: Reaction Biology Kinase HotSpot kinase assay; format: biochemical
T8 construct: purchased Reaction Biology Corp. (Kinase HotSpot service)
Excerpt: as §1

AKT1 = target: T9, AKT1 (Homo sapiens, UniProt P31749); experiment: Kinase HotSpot kinase profiling; format: biochemical; details: read-out: % Inhibition AKT1
T9 construct: purchased Reaction Biology Corp. (Kinase HotSpot service)
Excerpt: as §1

ALK = target: T10, ALK (Homo sapiens, UniProt Q9UM73); experiment: Kinase HotSpot kinase profiling; format: biochemical; details: read-out: % Inhibition ALK
T10 construct: purchased Reaction Biology Corp. (Kinase HotSpot service)
Excerpt: as §1

AXL = target: T11, AXL (Homo sapiens, UniProt P30530); experiment: Kinase HotSpot kinase profiling; format: biochemical; details: read-out: % Inhibition AXL
T11 construct: purchased Reaction Biology Corp. (Kinase HotSpot service)
Excerpt: as §1

AXL (R499C) = target: T12, AXL (R499C) (Homo sapiens, UniProt P30530, R499C); experiment: Kinase HotSpot kinase profiling; format: biochemical; details: read-out: % Inhibition AXL (R499C)
T12 construct: purchased Reaction Biology Corp. (Kinase HotSpot service)
Excerpt: as §1

Aurora A = target: T13, Aurora A (Homo sapiens, UniProt O14965); experiment: Kinase HotSpot kinase profiling; format: biochemical; details: read-out: % Inhibition Aurora A
T13 construct: purchased Reaction Biology Corp. (Kinase HotSpot service)
Excerpt: as §1

BRAF (V599E) = target: T14, BRAF (V599E) (Homo sapiens, UniProt P15056, V600E); experiment: Kinase HotSpot kinase profiling; format: biochemical
T14 construct: purchased Reaction Biology Corp. (Kinase HotSpot service)
Excerpt: as §1

BTK = target: T15, BTK (Homo sapiens, UniProt Q06187); experiment: Kinase HotSpot kinase profiling; format: biochemical; details: read-out: % Inhibition BTK
T15 construct: purchased Reaction Biology Corp. (Kinase HotSpot service)
Excerpt: as §1

EGFR = target: T16, EGFR (Homo sapiens, UniProt P00533); experiment: Kinase HotSpot kinase profiling; format: biochemical; details: read-out: % Inhibition EGFR
T16 construct: purchased Reaction Biology Corp. (Kinase HotSpot service)
Excerpt: as §1

ERK1 = target: T17, ERK1 (Homo sapiens, UniProt P27361); experiment: Kinase HotSpot kinase profiling; format: biochemical; details: read-out: % Inhibition ERK1
T17 construct: purchased Reaction Biology Corp. (Kinase HotSpot service)
Excerpt: as §1

FGFR3 = target: T18, FGFR3 (Homo sapiens, UniProt P22607); experiment: Kinase HotSpot kinase profiling; format: biochemical; details: read-out: % Inhibition FGFR3
T18 construct: purchased Reaction Biology Corp. (Kinase HotSpot service)
Excerpt: as §1

FLT3-ITD = FLT3-ITD (Homo sapiens, UniProt P36888, ITD); experiment: Kinase HotSpot kinase profiling; format: biochemical
Excerpt: as §1

FMS = target: T19, FMS (Homo sapiens, UniProt P07333); experiment: Kinase HotSpot kinase profiling; format: biochemical; details: read-out: % Inhibition FMS
T19 construct: purchased Reaction Biology Corp. (Kinase HotSpot service)
Excerpt: as §1

FYN = target: T20, FYN (Homo sapiens, UniProt P06241); experiment: Kinase HotSpot kinase profiling; format: biochemical
T20 construct: purchased Reaction Biology Corp. (Kinase HotSpot service)
Excerpt: as §1

c-MER = target: T21, c-MER (Homo sapiens, UniProt Q12866); experiment: Kinase HotSpot kinase profiling; format: biochemical; details: read-out: % Inhibition c-MER
T21 construct: purchased Reaction Biology Corp. (Kinase HotSpot service)
Excerpt: as §1

c-MET = target: T22, c-MET (Homo sapiens, UniProt P08581); experiment: Kinase HotSpot kinase profiling; format: biochemical; details: read-out: % Inhibition c-MET
T22 construct: purchased Reaction Biology Corp. (Kinase HotSpot service)
Excerpt: as §1

c-Src = target: T23, c-Src (Homo sapiens, UniProt P12931); experiment: Kinase HotSpot kinase profiling; format: biochemical; details: read-out: % Inhibition c-Src
T23 construct: purchased Reaction Biology Corp. (Kinase HotSpot service)
Excerpt: as §1

CCN1CCN(Cc2cc(C(=O)Nc3ccc4[nH]c(-c5ccc6cn[nH]c6c5)nc4c3)cc(C(F)(F)F)c2)CC1 [8r, N-(2-(1H-Indazol-6-yl)-1H-benzo[d]imidazol-5-yl)-3-((4-ethylpiperazin-1-yl)methyl)-5-(trifluoromethyl)benzamide]
IC50 (FLT3 (F594_R595 ins R)): 37.3 nM | inhibition at 1 µM (FLT3 (F594_R595 ins R); read-out: % Inhibition FLT3 (F594_R595insR)): 92% | IC50 (FLT3 (ITD)-NPOS): 41.5 nM | inhibition at 1 µM (FLT3 (ITD)-NPOS): 88% | IC50 (FLT3 (ITD)-W51): 22.8 nM | inhibition at 1 µM (FLT3 (ITD)-W51; read-out: % Inhibition FLT3 (ITD)-W51): 93.9% | IC50 (FLT3 (R595_E596 ins EY)): 24.8 nM | inhibition at 1 µM (FLT3 (R595_E596 ins EY); read-out: % Inhibition FLT3 (R595_E596insEY)): 93.9% | IC50 [1]: 49.5 nM | inhibition at 1 µM ([1]; read-out: % Inhibition FLT3 (Y591_V592insVDFREYEYD)): 90.9% | IC50 (ABL1): 3090 nM | inhibition at 1 µM (ABL1; read-out: % Inhibition ABL1): 18.4% | IC50 (CAMKK1): 395 nM | inhibition at 1 µM (CAMKK1; read-out: % Inhibition CAMKK1): > 20% | inhibition at 1 µM (CAMKK1; read-out: % Inhibition CAMKK1, 8r at 1 µM single dose): 32.5% | IC50 (TRKC): 1520 nM | inhibition at 1 µM (TRKC): > 20% | IC50 (c-Kit): 4570 nM | inhibition at 1 µM (c-Kit; read-out: % Inhibition c-Kit): 19% | inhibition at 1 µM (AKT1): 3.09% | inhibition at 1 µM (ALK): 7.5% | inhibition at 1 µM (AXL): 1.88% | inhibition at 1 µM (AXL (R499C)): 6.64% | inhibition at 1 µM (Aurora A): 7.47% | inhibition at 1 µM (BRAF (V599E)): 1% | inhibition at 1 µM (BTK): 17.5% | inhibition at 1 µM (EGFR): 0.274% | inhibition at 1 µM (ERK1): 0% | inhibition at 1 µM (FGFR3): 0% | inhibition at 1 µM (FLT3-ITD): 88% | inhibition at 1 µM (FMS): 0.531% | inhibition at 1 µM (FYN): 18% | inhibition at 1 µM (c-MER): 7.3% | inhibition at 1 µM (c-MET): 6.53% | inhibition at 1 µM (c-Src): 1.94% | melting point: 265 to 267 °C
